Reference: US7582601B2, “Use of tryptophan rich peptides” (Campina B.V., priority 2003, dated 2009)

Test system: cholecystokinin (CCK) level in plasma
Test: Plasma CCK levels in human volunteers after ingestion of test substance in orange juice (RIA)
Type: in vivo
Settings: healthy fasted human volunteers, n = 8
Experimental: The experiment described below was performed in a double-blind, four period, randomised, cross-over, placebo controlled study.
Eight healthy human volunteers were divided into four groups of two, and were refrained from any food overnight.
The experiment was repeated four times such, that all the eight volunteers eventually obtained aal the four test substances. During the four hours following the ingestion of the orange juice, blood was taken from the test persons at t=0, 30, 60 90, 120, 180 and 240 minutes after ingestion. CCK analysis was carried out using a radio-immunoassay (RIA) kit of Euro-Diagnostica (cat nr. #RB302) according to the instructions of the manufacturer.

SMILES: N[C@@H](Cc1c[nH]c2ccccc12)C(=O)O [Tryptophan, tryptophan]
- Mean CCK levels in plasma (0 minutes after ingestion, oral in 200 ml orange juice (25 g glucose), mean ± spread): 0.64 ± 0.78 pmol/L
- Mean CCK levels in plasma (30 minutes after ingestion, oral in orange juice): 1.49 ± 1.04 pmol/L
- Mean CCK levels in plasma (60 minutes after ingestion, oral in orange juice): 1.05 ± 1.06 pmol/L
- Mean CCK levels in plasma (90 minutes after ingestion, oral in orange juice): 0.83 ± 0.84 pmol/L
- Mean CCK levels in plasma (120 minutes after ingestion, oral in orange juice): 0.34 ± 0.11 pmol/L
- Mean CCK levels in plasma (180 minutes after ingestion, oral in orange juice): 0.30 ± 0.00 pmol/L
- Mean CCK levels in plasma (240 minutes after ingestion, oral in orange juice): 0.30 ± 0.00 pmol/L
